{"source": "paper PMC9784969", "about": "“SARS-CoV-2 Inhibitors Identified by Phenotypic Analysis of a Collection of Viral RNA-Binding Molecules” (Pharmaceuticals, 2022)", "key": {"[1]": {"system": "3_S2m RNA", "test": "ligand-based 1H NMR (1D, CPMG, wLOGSY)", "format": "binding, SARS-CoV-2"}, "[2]": {"test": "in vitro", "settings": "African green monkey, uninfected Vero E6 cells"}, "[3]": {"system": "3_S2m RNA", "test": "RNA-based 1H NMR (TOCSY) titration", "format": "binding, SARS-CoV-2", "settings": "RNA:ligand up to 1:4", "method": "The RNA samples were previously diafiltrated into an aqueous solution containing 25 mM potassium phosphate (pH 6.2), 50 mM KCl and 0.1 mM EDTA, and the titration experiments were carried out at 27 °C using 50 μM RNA samples in 100% D2O. The 3_S2m titrations were duplicated at 25 °C using 120 μM RNA samples and additionally acquiring NOESY spectra (250 ms mixing time) at 1:0 and 1:4 ratios. For this system, the chemical shift perturbation analyses included 63 H1’, H2’, and aromatic 3_S2m resonances. The isolated 3_S2m hairpin was studied at two different temperatures (25 and 35 °C) using 120 and 500 μM RNA samples and similar TOCSY and NOESY (120 and 250 ms mixing times) experiments. […] The relaxation delay for NOESY and TOCSY acquisition was 2 and 1.5 s, respectively."}, "[4]": {"system": "SARS-CoV-2 USA-WA1/2020", "test": "microbe, parasite or virus in culture", "format": "cell-based", "settings": "Severe acute respiratory syndrome coronavirus 2, Vero C1008, 48 h, Vero E6 cells, MOI 0.025, two days; read-out: SARS-CoV-2 EC50"}, "[5]": {"system": "SARS-CoV-2", "format": "cell-based", "settings": "48 h post-infection"}, "[6]": {"system": "SCoV2 USA-WA1/2020", "format": "cell-based", "settings": "293T-ACE2, MOI 2, 8-h single cycle; added at +2 h relative to infection"}, "[7]": {"biological_target": "3_S2m-23fl RNA hairpin", "test": "fluorescence intensity binding assay", "parameters": "species or system SARS-CoV-2", "method": "The 3_S2m-23fl RNA oligonucleotide used in fluorescence intensity experiments was purchased HPLC-purified from Integrated DNA Technologies (Coralville, IA, USA). […] The mixture of tRNAs from E. coli MRE 600 (identified as tRNA^mix) used to evaluate specificity was obtained from Roche (Basel, Switzerland).\n3_S2m-23fl (at 100 nM concentration) was snap-cooled in a buffer containing sodium phosphate pH 6.6, 0 or 150 mM NaCl, and 0.1 mM EDTA and incubated with increasing amounts of compound. The specificity of the RNA–ligand interactions was evaluated by repeating the assays in the presence of a 100-fold molar excess (10 μM) of tRNA^mix. The equilibrium dissociation constants Kd were obtained by fitting the dose–response curves to a two-state binding model [41] with Prism software (GraphPad Software, San Diego, CA, USA). All fluorescence binding assays were carried out three times for each molecule and condition."}, "[8]": {"system": "SCoV2 RNA elements", "test": "ligand-based 1H NMR (1D, CPMG, wLOGSY), six RNA elements compared", "format": "binding, SARS-CoV-2", "settings": "CSP, LB, CPMG and wLOGSY perturbations; 300 µM compound", "how_it_was_run": "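Ligand at 300 μM with RNA at 6 or 3 μM (1:50, 1:100) in 25 mM K phosphate pH 6.2, 150 mM KCl, 3 mM MgCl2, 10% D2O, ±RNA. CPMG (100–400 ms delays) and 1D binding scored as 100 minus % signal area retained; wLOGSY (1.5 s mixing) as LOGSY factor.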"}, "[9]": {"system": "PRF RNA", "test": "ligand-based 1H NMR (1D, CPMG, wLOGSY)", "format": "binding, SARS-CoV-2"}, "[10]": {"system": "ATTL RNA", "test": "ligand-based 1H NMR (1D, CPMG, wLOGSY)", "format": "binding, SARS-CoV-2"}, "[11]": {"system": "SARS-CoV-2 USA-WA1/2020", "test": "microbe, parasite or virus in culture", "format": "cell-based", "settings": "Severe acute respiratory syndrome coronavirus 2, 48 h; 293T-ACE2 cells, MOI 0.25, two days; read-out: SARS-CoV-2 EC50"}, "[12]": {"settings": "average of aliphatic protons, RNA:ligand 1:100 (clomiphene) or 1:50 (trim, qz2)"}, "[13]": {"settings": "average of aromatic protons, RNA:ligand 1:100 (clomiphene) or 1:50 (trim, qz2)"}}, "note": "Read-outs that look alike come from different tables or passages of the source.", "data": [{"smiles": "NCCCc1cn(C(c2ccccc2)(c2ccccc2)c2ccccc2)cn1", "note": "[trim]", "values": [{"measurement": "CPMG variation", "setting": "[1]; [12]", "value": 15.7, "unit": "%"}, {"measurement": "LB", "setting": "[1]; [12]", "value": 9.33, "unit": "%"}, {"measurement": "LOGSY factor", "setting": "[1]; [12]", "value": 39.4, "unit": "%"}, {"measurement": "CPMG variation", "setting": "[1]; [13]", "value": 24.0, "unit": "%"}, {"measurement": "LB", "setting": "[1]; [13]", "value": 8.82, "unit": "%"}, {"measurement": "LOGSY factor", "setting": "[1]; [13]", "value": 54.4, "unit": "%"}, {"measurement": "CPMG variation", "setting": "[1]; trim peak A, RNA:ligand 1:50", "value": 15.8, "unit": "%"}, {"measurement": "LB", "setting": "[1]; trim peak A, RNA:ligand 1:50", "value": 5.70, "unit": "%"}, {"measurement": "LOGSY factor", "setting": "[1]; trim peak A, RNA:ligand 1:50", "value": 45.5, "unit": "%"}, {"measurement": "CPMG variation", "setting": "[1]; trim peak B, RNA:ligand 1:50", "value": 22.1, "unit": "%"}, {"measurement": "LB", "setting": "[1]; trim peak B, RNA:ligand 1:50", "value": 11.1, "unit": "%"}, {"measurement": "LOGSY factor", "setting": "[1]; trim peak B, RNA:ligand 1:50", "value": 33.3, "unit": "%"}, {"measurement": "CPMG variation", "setting": "[1]; trim peak C, RNA:ligand 1:50", "value": 22.2, "unit": "%"}, {"measurement": "LB", "setting": "[1]; trim peak C, RNA:ligand 1:50", "value": 11.7, "unit": "%"}, {"measurement": "LOGSY factor", "setting": "[1]; trim peak C, RNA:ligand 1:50", "value": 54.5, "unit": "%"}, {"measurement": "CPMG variation", "setting": "[1]; trim peak D, RNA:ligand 1:50", "value": 24.2, "unit": "%"}, {"measurement": "LB", "setting": "[1]; trim peak D, RNA:ligand 1:50", "value": 4.64, "unit": "%"}, {"measurement": "LOGSY factor", "setting": "[1]; trim peak D, RNA:ligand 1:50", "value": 70.5, "unit": "%"}, {"measurement": "CPMG variation", "setting": "[1]; trim peak E, RNA:ligand 1:50", "value": 26.4, "unit": "%"}, {"measurement": "LB", "setting": "[1]; trim peak E, RNA:ligand 1:50", "value": 14.3, "unit": "%"}, {"measurement": "LOGSY factor", "setting": "[1]; trim peak E, RNA:ligand 1:50", "value": 38.2, "unit": "%"}, {"measurement": "CC50 at 2 days", "setting": "[2]", "value": "> 90", "unit": "µM"}, {"measurement": "RNA chemical shift perturbations", "setting": "[3]", "value": "strongest RNA chemical shift perturbations"}, {"measurement": "EC50", "setting": "[4]", "value": 3.5, "unit": "µM"}, {"measurement": "viral titers in supernatants (TCID50)", "setting": "[5]", "value": "below the limit of detection"}, {"measurement": "nucleocapsid protein expression", "setting": "[6]", "value": "strongly inhibited"}, {"measurement": "Kd", "setting": "[7]; 0 mM NaCl, pH 6.6, 25 °C, read-out: Kd", "value": 19.3, "unit": "µM"}, {"measurement": "Kd", "setting": "[7]; 150 mM NaCl, 100-fold molar excess of tRNA, read-out: Kd-tRNA", "value": 8.97, "unit": "µM"}, {"measurement": "Kd", "setting": "[7]; 150 mM NaCl, pH 6.6, 25 °C, no tRNA, read-out: Kd", "value": 12.5, "unit": "µM"}, {"measurement": "RNA binding preference", "setting": "[8]", "value": "bound with enhanced affinity to the 5_SL2+3 and 3_S2m molecules"}, {"measurement": "CPMG variation", "setting": "[9]; [12]", "value": 14.0, "unit": "%"}, {"measurement": "LB", "setting": "[9]; [12]", "value": 13.9, "unit": "%"}, {"measurement": "LOGSY factor", "setting": "[9]; [12]", "value": 29.0, "unit": "%"}, {"measurement": "CPMG variation", "setting": "[9]; [13]", "value": 15.5, "unit": "%"}, {"measurement": "LB", "setting": "[9]; [13]", "value": -22.5, "unit": "%"}, {"measurement": "LOGSY factor", "setting": "[9]; [13]", "value": 50.5, "unit": "%"}, {"measurement": "CPMG variation", "setting": "[9]; trim peak A, RNA:ligand 1:50", "value": 13.0, "unit": "%"}, {"measurement": "LB", "setting": "[9]; trim peak A, RNA:ligand 1:50", "value": 20.1, "unit": "%"}, {"measurement": "LOGSY factor", "setting": "[9]; trim peak A, RNA:ligand 1:50", "value": 37.0, "unit": "%"}, {"measurement": "CPMG variation", "setting": "[9]; trim peak B, RNA:ligand 1:50", "value": 18.9, "unit": "%"}, {"measurement": "LB", "setting": "[9]; trim peak B, RNA:ligand 1:50", "value": 10.8, "unit": "%"}, {"measurement": "LOGSY factor", "setting": "[9]; trim peak B, RNA:ligand 1:50", "value": 21.0, "unit": "%"}, {"measurement": "CPMG variation", "setting": "[9]; trim peak C, RNA:ligand 1:50", "value": 9.72, "unit": "%"}, {"measurement": "LB", "setting": "[9]; trim peak C, RNA:ligand 1:50", "value": -39.2, "unit": "%"}, {"measurement": "LOGSY factor", "setting": "[9]; trim peak C, RNA:ligand 1:50", "value": 16.7, "unit": "%"}, {"measurement": "CPMG variation", "setting": "[9]; trim peak D, RNA:ligand 1:50", "value": 19.7, "unit": "%"}, {"measurement": "LB", "setting": "[9]; trim peak D, RNA:ligand 1:50", "value": 3.93, "unit": "%"}, {"measurement": "LOGSY factor", "setting": "[9]; trim peak D, RNA:ligand 1:50", "value": 46.0, "unit": "%"}, {"measurement": "CPMG variation", "setting": "[9]; trim peak E, RNA:ligand 1:50", "value": 12.5, "unit": "%"}, {"measurement": "LB", "setting": "[9]; trim peak E, RNA:ligand 1:50", "value": -58.9, "unit": "%"}, {"measurement": "LOGSY factor", "setting": "[9]; trim peak E, RNA:ligand 1:50", "value": 88.8, "unit": "%"}, {"measurement": "CPMG variation", "setting": "[10]; [12]", "value": 11.7, "unit": "%"}, {"measurement": "LB", "setting": "[10]; [12]", "value": 10.0, "unit": "%"}, {"measurement": "LOGSY factor", "setting": "[10]; [12]", "value": 5.15, "unit": "%"}, {"measurement": "CPMG variation", "setting": "[10]; [13]", "value": -12.7, "unit": "%"}, {"measurement": "LB", "setting": "[10]; [13]", "value": 9.31, "unit": "%"}, {"measurement": "LOGSY factor", "setting": "[10]; [13]", "value": 4.35, "unit": "%"}, {"measurement": "CPMG variation", "setting": "[10]; trim peak A, RNA:ligand 1:50", "value": 8.20, "unit": "%"}, {"measurement": "LB", "setting": "[10]; trim peak A, RNA:ligand 1:50", "value": 12.4, "unit": "%"}, {"measurement": "LOGSY factor", "setting": "[10]; trim peak A, RNA:ligand 1:50", "value": 7.80, "unit": "%"}, {"measurement": "CPMG variation", "setting": "[10]; trim peak B, RNA:ligand 1:50", "value": 17.6, "unit": "%"}, {"measurement": "LB", "setting": "[10]; trim peak B, RNA:ligand 1:50", "value": 8.81, "unit": "%"}, {"measurement": "LOGSY factor", "setting": "[10]; trim peak B, RNA:ligand 1:50", "value": 2.50, "unit": "%"}, {"measurement": "CPMG variation", "setting": "[10]; trim peak C, RNA:ligand 1:50", "value": -36.9, "unit": "%"}, {"measurement": "LB", "setting": "[10]; trim peak C, RNA:ligand 1:50", "value": 1.54, "unit": "%"}, {"measurement": "LOGSY factor", "setting": "[10]; trim peak C, RNA:ligand 1:50", "value": 4.56, "unit": "%"}, {"measurement": "CPMG variation", "setting": "[10]; trim peak D, RNA:ligand 1:50", "value": 8.68, "unit": "%"}, {"measurement": "LB", "setting": "[10]; trim peak D, RNA:ligand 1:50", "value": 7.54, "unit": "%"}, {"measurement": "LOGSY factor", "setting": "[10]; trim peak D, RNA:ligand 1:50", "value": 4.51, "unit": "%"}, {"measurement": "CPMG variation", "setting": "[10]; trim peak E, RNA:ligand 1:50", "value": -32.0, "unit": "%"}, {"measurement": "LB", "setting": "[10]; trim peak E, RNA:ligand 1:50", "value": 23.3, "unit": "%"}, {"measurement": "LOGSY factor", "setting": "[10]; trim peak E, RNA:ligand 1:50", "value": 3.98, "unit": "%"}, {"measurement": "EC50", "setting": "[11]", "value": 0.33, "unit": "µM"}]}]}
